The results in this text go back to PMC11930087, “Mobility of four structural regions drives isoform-specific properties of photoenzyme LPOR in plants” (The Journal of Biological Chemistry, 2025).

Molecules are shown by their SMILES.

In one assay the target is T1, PeaPOR (Lathyrus oleraceus, UniProt Q01289).
T1 construct: gene 3PCR; transit peptide removed; pET15b
T1 sequence (Q01289 65-399): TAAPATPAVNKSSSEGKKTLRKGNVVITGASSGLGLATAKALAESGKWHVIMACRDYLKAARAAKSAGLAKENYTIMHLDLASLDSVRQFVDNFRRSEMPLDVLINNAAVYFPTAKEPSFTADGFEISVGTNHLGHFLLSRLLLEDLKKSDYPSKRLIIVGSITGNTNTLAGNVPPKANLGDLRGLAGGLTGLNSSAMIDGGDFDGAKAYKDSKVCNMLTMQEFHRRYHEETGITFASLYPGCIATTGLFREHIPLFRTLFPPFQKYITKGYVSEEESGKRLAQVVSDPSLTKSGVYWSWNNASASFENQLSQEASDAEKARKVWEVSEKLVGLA
As to the kind of experiment: […] K Pchlide fluorescence in darkness, F648/F635 ratio vs NADPH, hyperbolic fit. The assay is classed as binding. The note with it: lipid-free; 5 μM Pchlide, 15 μM LPOR, pH 7.1, room-temperature dark incubation; apparent parameter, exact value in supplement; read-out: KM^D.

For another assay, the target named is T2, AtPORA (Arabidopsis thaliana, UniProt Q42536).
T2 construct: gene PORA
T2 sequence (Q42536 70-405): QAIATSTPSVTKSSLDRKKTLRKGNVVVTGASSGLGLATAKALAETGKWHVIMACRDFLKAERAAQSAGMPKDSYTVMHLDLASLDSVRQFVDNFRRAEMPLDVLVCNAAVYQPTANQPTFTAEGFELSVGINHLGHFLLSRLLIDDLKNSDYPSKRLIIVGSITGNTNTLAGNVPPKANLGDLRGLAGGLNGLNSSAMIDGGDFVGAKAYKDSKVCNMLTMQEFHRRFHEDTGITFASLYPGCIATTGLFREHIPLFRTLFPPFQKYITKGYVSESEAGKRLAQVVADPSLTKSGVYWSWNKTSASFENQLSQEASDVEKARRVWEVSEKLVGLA
The description is as above. Format: binding. Particulars: lipid-free; 5 μM Pchlide, 15 μM LPOR, pH 7.1, room-temperature dark incubation; apparent parameter, exact value in supplement; read-out: KM^D.

For a further assay, the target named is T3, SlPOR3 (Solanum lycopersicum, UniProt A0A3Q7J565).
T3 construct: gene LOC101248079; transit peptide removed; pET15b
T3 sequence (A0A3Q7J565 63-397): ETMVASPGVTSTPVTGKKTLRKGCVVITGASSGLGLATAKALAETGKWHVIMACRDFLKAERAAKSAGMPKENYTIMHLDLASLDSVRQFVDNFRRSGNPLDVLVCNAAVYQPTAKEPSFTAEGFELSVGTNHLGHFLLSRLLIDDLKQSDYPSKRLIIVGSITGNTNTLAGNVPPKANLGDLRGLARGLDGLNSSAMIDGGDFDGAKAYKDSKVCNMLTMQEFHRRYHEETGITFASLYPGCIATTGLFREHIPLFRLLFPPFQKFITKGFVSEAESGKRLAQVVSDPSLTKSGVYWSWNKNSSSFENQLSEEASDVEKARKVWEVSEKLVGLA
The note with it: 5 uM Pchlide, 15 uM LPOR, binder. The method, then: (Figs. 3A, S2). […] The resulting plots resembled saturation curves, to which a hyperbolic function similar to the Michaelis–Menten equation could be fitted (Figs. 3B, S3, Materials and Methods). […] However, KM^L values were consistently lower than KM^D values. […] The addition of 400 μM OPT lipids lowered the KM^D constant for all isoforms, except for SlPOR1, SlPOR3, HaPOR1, HaPOR2, and PeaPOR, where the constant remained unchanged within error estimates. […] Shaded areas represent the SD between replicates. […] A fit of a modified Michaelis–Menten equation is shown, along with the graphical representation of KM^D (B) or KM^L (C). Spectra corresponding to the given F648/F635 values (B) or F Chlide/F Pchlide values (C) are shown on the right side of the plot. D, relationship between KM^D and KM^L for investigated isoforms. The overall distribution of data points is shown in gray. Error bars represent the uncertainty associated with the fitted constant KM^x. Closed symbols represent constants determined for samples not supplemented with lipids, while open symbols these determined in the presence of 400 μM OPT lipids. LPOR, light-dependent protochlorophyllide oxidoreductase; Pchlide, protochlorophyllide; Chlide, chlorophyllide.

Turning to `NC(=O)C1=CN([C@@H]2O[C@H](COP(=O)(O)OP(=O)(O)OC[C@H]3O[C@@H](n4cnc5c(N)ncnc54)[C@H](OP(=O)(O)O)[C@@H]3O)[C@@H](O)[C@H]2O)C=CC1` [NADPH], the Kd at PeaPOR was below 10 µM; on AtPORA it was above 100 µM. Moreover, at SlPOR3 (400 uM OPT lipids), the apparent Michaelis constant in dark (KM^D) turned out to be 3 µM. At SlPOR3 (no lipids), the apparent KM (dark, KM^D) was 4.9 µM.
